Experimental data published in ChEMBL document CHEMBL1126915, “Solvent-dependent conformation and hydrogen-bonding capacity of cyclosporin A: evidence from partition coefficients and molecular dynamics simulations” (J Med Chem, 1993).

Experiments:
Details in all cases: octanol/water
[1] = Partition coefficient of compound was measured in heptane/water system
physchem [2] = test: physchem
Description: Partition coefficient (logP)

physchem [3] = test: physchem; remark: listed apart in the source
Description: Partition coefficient (logP)

Compound | Log Phep [1] | logP (physchem [2]) | logP (physchem [3])
NC(=O)c1ccccc1F | -1.47 | 0.5 | 0.64
CC(=O)Nc1ccc(F)cc1 | -1.57 | 1.61 | 1.47
NC(=O)c1ccccc1 [BENZAMIDE] | -2.45 |  | 
O=[N+]([O-])c1ccccc1O [NITROPHENOLATE] | 1.04 | 1.85 | 1.68
O=[N+]([O-])c1ccc(O)cc1 [P-NITROPHENOL] | -2.11 | 1.85 | 1.77
Oc1ccccc1 [PHENOL] | -0.82 |  | 

Results, then the compound that gave them:

Log Phep [1] | logP (physchem [2]) | logP (physchem [3]) | Compound
-0.69 | 0.96 | 0.96 | CC(=O)Nc1ccccc1F
< -3 | 2.19 | 1.05 | O=C1N[C@H](Cc2ccc(O)cc2)C(=O)N[C@H]1Cc1c[nH]c2ccccc12
-2.34 | 1 | 0.96 | NC(=O)c1ccc(F)cc1
< -3 | 2.86 | 1.59 | O=C1N[C@@H](Cc2ccccc2)C(=O)N[C@H]1Cc1ccccc1
-1.54 |  |  | CC(=O)Nc1ccccc1 [ACETANILIDE]
